Data reported in ChEMBL document CHEMBL1201862, “PubChem BioAssay data set” (2004).
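Each compound was tested at five concentrations against cells in 96-well plates for 48 hours. At the GI50, growth is halved.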 Calls of active or inactive are those of the source. Cut-off read from the data, not from the text of the source: active = GI50 up to about 1.1 µM and inactive = higher.

What was measured:
Test in all cases: NCI anticancer screen, dose series, 48 h
[1] = test system: Malme-3M
[2] = test system: HCT-116
[3] = test system: SF-295
[4] = test system: TK-10
[5] = test system: OVCAR-4
[6] = test system: RXF 393
[7] = test system: DLD-1
[8] = test system: HOP-92
[9] = test system: ACHN
[10] = test system: OVCAR-8
[11] = test system: A498
[12] = test system: MOLT-4
[13] = test system: HL-60
[14] = test system: LOX IMVI

Measured: GI50

CC1C=CC(O)[C@]2(CO)CC3(CCC12)OCCO3 (some centres undefined)
inactive: [1] > 100 µM | [2] > 100 µM | [3] > 100 µM | [4] > 100 µM | [5] > 100 µM | [6] > 100 µM | [7] > 100 µM | [8] > 100 µM | [9] > 100 µM | [10] > 100 µM | [11] > 100 µM | [12] > 100 µM | [13] > 100 µM

Cc1ccccc1C1OC(=O)c2ccc3ccccc3c21 (centres undefined)
inactive: [14] 2.57 µM | [1] 5.56 µM | [2] 2.52 µM | [3] 7.35 µM | [4] 7 µM | [5] 9.51 µM | [6] 2.59 µM | [7] 3.37 µM | [8] 10.8 µM | [9] 4.63 µM | [10] 3.12 µM | [11] 2.36 µM | [12] 2.23 µM | [13] 2.79 µM

Brc1cc2c(cc1Br)CN(c1ccccc1)C2
inactive: [14] > 100 µM | [1] > 100 µM | [2] > 100 µM | [3] > 100 µM | [4] > 100 µM | [5] > 100 µM | [6] 99.8 µM | [7] 68.2 µM | [8] 41.5 µM | [9] > 100 µM | [10] > 100 µM | [11] > 100 µM | [12] > 100 µM | [13] > 100 µM

Cc1cc(C)c2c(c1)N[S@@](=O)S2
inactive: [14] 15.3 µM | [1] 25.2 µM | [2] 17.1 µM | [3] 39.7 µM | [4] 30.4 µM | [5] 23.1 µM | [6] 10.6 µM | [7] 26.9 µM | [8] 45.8 µM | [9] 23.4 µM | [10] 17.7 µM | [11] > 100 µM | [12] 25.8 µM | [13] 26.4 µM

COC(=O)Cc1nc2ccccc2o1
inactive: [1] > 100 µM | [2] 91.2 µM | [3] 41.1 µM | [4] 46.2 µM | [5] > 100 µM | [6] > 100 µM | [7] 45.1 µM | [8] > 100 µM | [9] 41.7 µM | [10] 55.5 µM | [11] > 100 µM | [12] 67.9 µM | [13] 12.5 µM

CC1=C(C)CC2(CCCCC2=O)[S+]([O-])C1 (centres undefined)
inactive: [14] > 100 µM | [1] > 100 µM | [2] > 100 µM | [3] > 100 µM | [4] > 100 µM | [5] > 100 µM | [6] > 100 µM | [7] > 100 µM | [8] > 100 µM | [9] > 100 µM | [10] > 100 µM | [11] > 100 µM | [12] > 100 µM | [13] > 100 µM

C/C(CC(=O)Nc1ccc(NC(=O)/C(C)=N/NS(=O)(=O)c2ccc(C)cc2)cc1)=N\NS(=O)(=O)c1ccc(C)cc1
inactive: [14] > 100 µM | [1] > 100 µM | [2] > 100 µM | [3] > 100 µM | [4] > 100 µM | [6] > 100 µM | [7] > 100 µM | [8] > 100 µM | [9] > 100 µM | [10] > 100 µM | [11] > 100 µM | [12] > 100 µM | [13] > 100 µM

N=C(N)NS(=O)(=O)c1ccc(NC(=O)c2cccc3c(Nc4ccc(S(N)(=O)=O)cc4)c4ccccc4nc23)cc1
inactive: [14] > 100 µM | [1] > 100 µM | [3] > 100 µM | [4] > 100 µM | [5] > 100 µM | [6] > 100 µM | [7] > 100 µM | [8] > 100 µM | [9] > 100 µM | [10] > 100 µM | [11] > 100 µM | [12] > 100 µM

C[n+]1c2ccccc2c(NC(CCC(N)=O)C(=O)O)c2ccccc21 (centres undefined)
inactive: [1] > 100 µM | [2] > 100 µM | [3] > 100 µM | [4] > 100 µM | [5] > 100 µM | [6] > 100 µM | [7] > 100 µM | [8] > 100 µM | [9] > 100 µM | [10] > 100 µM | [11] > 100 µM | [12] > 100 µM | [13] > 100 µM

NC(CNc1ccc(O)cc1)C(=O)O (centres undefined)
inactive: [14] 60.8 µM | [1] > 100 µM | [2] > 100 µM | [3] > 100 µM | [4] > 100 µM | [5] 17.4 µM | [6] > 100 µM | [7] > 100 µM | [8] > 100 µM | [9] 57.8 µM | [10] > 100 µM | [11] > 100 µM | [12] > 100 µM | [13] 31.5 µM

CS/C(c1ccccc1)=[N+](/C)[O-]
inactive: [14] > 43.3 µM | [1] > 100 µM | [2] > 80 µM | [3] > 100 µM | [4] > 100 µM | [5] > 100 µM | [6] > 100 µM | [7] > 61.5 µM | [8] > 100 µM | [9] > 100 µM | [10] > 100 µM | [11] > 100 µM | [12] > 100 µM | [13] > 100 µM

CCCCCCCC(=O)OCC(C[As](=O)(O)O)OC(=O)CCCCCCC (centres undefined)
inactive: [1] 15.1 µM | [2] 16.7 µM | [3] 16.6 µM | [5] 19.7 µM | [6] 5.01 µM | [7] 16.9 µM | [8] 12.7 µM | [9] 16.9 µM | [10] 15.8 µM | [11] 19.1 µM | [12] 16.6 µM | [13] 5.56 µM

CSc1ccc(N2C(=O)C3c4[nH]c5ccccc5c4C4CCC(C(C)(C)C)CC4C3C2=O)cc1 (centres undefined)
inactive: [14] 14 µM | [1] 12.3 µM | [2] 5.24 µM | [3] 14.3 µM | [4] 19.5 µM | [5] 10.3 µM | [6] 20.3 µM | [7] 52.4 µM | [8] 11.3 µM | [9] 13.9 µM | [10] 12.1 µM | [11] 17.8 µM | [12] 15.4 µM | [13] 13.7 µM

C[C@H]1CC[P+](C)(c2ccccc2)C1 (some centres undefined)
inactive: [14] > 100 µM | [1] > 100 µM | [2] > 100 µM | [3] > 100 µM | [4] > 100 µM | [6] > 100 µM | [7] > 100 µM | [9] > 100 µM | [10] > 100 µM | [11] > 100 µM | [12] > 100 µM | [13] > 100 µM

Cc1cc2c(cc1C)[n+]([O-])c(C(=O)C/C(=N/NC(=O)c1ccccc1O)C(=O)Nc1ccccc1C(C)C)c(C)[n+]2[O-]
inactive: [14] 87.3 µM | [1] > 100 µM | [2] > 100 µM | [3] > 100 µM | [4] > 100 µM | [5] 54.1 µM | [6] > 100 µM | [7] 53.7 µM | [9] > 100 µM | [10] > 100 µM | [11] > 100 µM | [12] 21.9 µM | [13] 14.8 µM

O=C(Nc1c(Cl)cc([N+](=O)[O-])cc1Cl)C(=O)C(C1OC(=O)c2ccccc21)[N+](=O)[O-] (centres undefined)
inactive: [14] 81.7 µM | [1] > 100 µM | [2] > 100 µM | [3] > 100 µM | [4] > 100 µM | [5] > 100 µM | [6] > 100 µM | [7] > 100 µM | [8] 15.1 µM | [9] > 100 µM | [10] > 100 µM | [11] 31.6 µM | [12] > 100 µM | [13] > 100 µM

CC(=O)OCC1OC(n2c(=O)n(-c3ccccc3)c(=O)c3cc(Br)cc(Br)c32)C(OC(C)=O)C(OC(C)=O)C1OC(C)=O (centres undefined)
inactive: [14] > 100 µM | [1] > 100 µM | [2] > 100 µM | [3] 12 µM | [4] > 100 µM | [5] 7.5 µM | [6] 48.1 µM | [7] > 100 µM | [8] > 100 µM | [9] > 100 µM | [10] > 100 µM | [11] > 100 µM | [12] > 100 µM | [13] > 100 µM

O=S1OC(c2ccccc2)(c2ccccc2)C(c2ccccc2)(c2ccccc2)O1
inactive: [14] 2.56 µM | [1] > 100 µM | [2] 4.61 µM | [3] 14.1 µM | [4] > 100 µM | [5] 45.2 µM | [6] > 72.1 µM | [7] > 73.8 µM | [8] 7.74 µM | [9] 41.7 µM | [10] > 100 µM | [11] > 100 µM | [12] 5.26 µM | [13] 7.96 µM

c1ccc(C2OC3(CCC[C@H]4C[C@H]43)O[C@H]2c2ccccc2)cc1 (some centres undefined)
inactive: [14] 24.2 µM | [1] 34.5 µM | [2] 31.8 µM | [3] 46.3 µM | [4] > 100 µM | [5] 53.2 µM | [6] 38.5 µM | [7] 78.9 µM | [8] 27.3 µM | [9] 30.3 µM | [10] 48 µM | [11] > 100 µM | [12] 25.8 µM | [13] 19.8 µM

CCOC(=O)N1C2C=C(C)C(C3C(C)C(=O)N31)N(C(=O)c1ccccc1)O2 (centres undefined)
inactive: [14] > 100 µM | [1] > 100 µM | [2] > 100 µM | [3] > 100 µM | [4] > 100 µM | [5] > 100 µM | [6] > 100 µM | [7] > 100 µM | [8] > 100 µM | [9] > 100 µM | [10] > 100 µM | [11] > 100 µM | [12] > 100 µM | [13] > 100 µM
